The assay addresses human adenosine A2b receptor (Homo sapiens (Human), UniProt P29275). The experiment in a line: Cellular in vitro reporter gene test for A2b receptor activity (CHO-K1, CRE-luciferase, NECA stimulation). Format: cell-based. The following applies: recombinant CHO-K1 cell line, CRE-luciferase reporter, antagonism of EC50 concentration of NECA; in some cases means of several determinations, rounded to two significant figures; read-out: A2b receptor IC50. In outline: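 CHO-K1 cells with CRE-driven luciferase; antagonists co-incubated with NECA at its EC50, determined in a pre-experiment on each test day. Luciferase read by luminescence 3 h after NECA addition.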

SMILES strings stand for the structures.

Chain of human adenosine A2b receptor (P29275 whole entry): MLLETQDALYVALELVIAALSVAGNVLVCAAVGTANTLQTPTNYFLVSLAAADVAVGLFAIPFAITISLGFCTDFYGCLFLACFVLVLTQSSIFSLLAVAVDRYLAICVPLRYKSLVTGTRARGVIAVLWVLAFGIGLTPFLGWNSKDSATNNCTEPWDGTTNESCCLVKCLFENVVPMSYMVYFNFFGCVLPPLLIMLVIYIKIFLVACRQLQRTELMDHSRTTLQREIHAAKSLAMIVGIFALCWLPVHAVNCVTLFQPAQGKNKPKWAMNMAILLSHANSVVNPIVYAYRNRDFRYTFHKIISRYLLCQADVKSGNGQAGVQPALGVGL

`COC(=O)N=C1NCCN1Cc1sc2c(c1C)c(=O)n(C(C)C(F)(F)F)c(=O)n2CCC(F)(F)F` (racemic) [Example 470, Methyl [1-{[5-methyl-2,4-dioxo-3-(1,1,1-trifluoropropan-2-yl)-1-(3,3,3-trifluoropropyl)-1,2,3,4-tetrahydrothieno[2,3-d]pyrimidin-6-yl]methyl}imidazolidin-2-ylidene]carbamate]: the IC50 was found to be 5.1 nM. The result for `COCCn1c(=O)n(C(C)C(F)(F)F)c(=O)c2c(C)c(CN3CCNC3=NC(=O)OC)sc21` (racemic) [Example 471, Methyl [1-{[1-(2-methoxyethyl)-5-methyl-2,4-dioxo-3-(1,1,1-trifluoropropan-2-yl)-1,2,3,4-tetrahydrothieno[2,3-d]pyrimidin-6-yl]methyl}imidazolidin-2-ylidene]carbamate] reads 18 nM.

Turning to `COC(=O)N=C1NCCN1Cc1sc2c(c1C)c(=O)n(CC(C)OC)c(=O)n2CCC(F)(F)F` (racemic) [Example 472, Methyl [1-{[3-(2-methoxypropyl)-5-methyl-2,4-dioxo-1-(3,3,3-trifluoropropyl)-1,2,3,4-tetrahydrothieno[2,3-d]pyrimidin-6-yl]methyl}imidazolidin-2-ylidene]carbamate], the IC50 worked out at 6.7 nM. The result for `CCn1c(=O)c2c(C)c(CN3CCNC(=O)C3=O)sc2n(CC2CCCO2)c1=O` (racemic) [Example 475, 6-[(2,3-Dioxopiperazin-1-yl)methyl]-3-ethyl-5-methyl-1-(tetrahydrofuran-2-ylmethyl)thieno[2,3-d]pyrimidine-2,4(1H,3H)-dione] reads 36 nM. Turning to `Cc1c(CN2CCNC(=O)C2=O)sc2c1c(=O)n(C(C)C)c(=O)n2CC1CCCO1` (racemic) [Example 480, 6-[(2,3-Dioxopiperazin-1-yl)methyl]-3-isopropyl-5-methyl-1-(tetrahydrofuran-2-ylmethyl)thieno[2,3-d]pyrimidine-2,4(1H,3H)-dione], the IC50 turned out to be 35 nM. As to `Cc1c(CN2CCNC(=O)C2=O)sc2c1c(=O)n(CC(C)(C)C)c(=O)n2CC1CCCO1` (racemic) [Example 483, 3-(2,2-Dimethylpropyl)-6-[(2,3-dioxopiperazin-1-yl)methyl]-5-methyl-1-(tetrahydrofuran-2-ylmethyl)thieno[2,3-d]pyrimidine-2,4(1H,3H)-dione], the IC50 is 45 nM.

With `Cc1c(CN2CCNC(=O)C2=O)sc2c1c(=O)n(CC(F)(F)F)c(=O)n2CC1CCCO1` (racemic) [Example 487, 6-[(2,3-Dioxopiperazin-1-yl)methyl]-5-methyl-1-(tetrahydrofuran-2-ylmethyl)-3-(2,2,2-trifluoroethyl)thieno[2,3-d]pyrimidine-2,4(1H,3H)-dione], the IC50 was determined as 250 nM. As for `Cc1c(CN2CCNC(=O)C2=O)sc2c1c(=O)n(C(C)C(F)(F)F)c(=O)n2CCC(F)(F)F` (racemic) [Example 490, 6-[(2,3-Dioxopiperazin-1-yl)methyl]-5-methyl-3-(1,1,1-trifluoropropan-2-yl)-1-(3,3,3-trifluoropropyl)thieno[2,3-d]pyrimidine-2,4(1H,3H)-dione], the IC50 was 19 nM. Take `COCCn1c(=O)n(C(C)C(F)(F)F)c(=O)c2c(C)c(CN3CCNC(=O)C3=O)sc21` (racemic) [Example 491, 6-[(2,3-Dioxopiperazin-1-yl)methyl]-1-(2-methoxyethyl)-5-methyl-3-(1,1,1-trifluoropropan-2-yl)thieno[2,3-d]pyrimidine-2,4(1H,3H)-dione]: the IC50 stood at 52 nM. `COC(C)Cn1c(=O)c2c(C)c(CN3CCNC(=O)C3=O)sc2n(CCC(F)(F)F)c1=O` (racemic) [Example 493, 6-[(2,3-Dioxopiperazin-1-yl)methyl]-3-(2-methoxypropyl)-5-methyl-1-(3,3,3-trifluoropropyl)thieno[2,3-d]pyrimidine-2,4(1H,3H)-dione]: the half-maximal inhibitory concentration (IC50) worked out at 11 nM.

As for `Cc1c(Cn2cc[nH]c2=O)sc2c1c(=O)n(CC(C)(C)C)c(=O)n2CC1CCCO1` (racemic) [Example 507, 3-(2,2-Dimethylpropyl)-5-methyl-6-[(2-oxo-2,3-dihydro-1H-imidazol-1-yl)methyl]-1-(tetrahydrofuran-2-ylmethyl)thieno[2,3-d]pyrimidine-2,4(1H,3H)-dione], the IC50 is 28 nM. With `CCn1c(=O)c2c(C)c(CN3CCNC3=NC(=O)OC)sc2n(CCOC)c1=O` (single isomer, unassigned) [Example 118, Methyl [1-{[3-ethyl-1-(2-methoxyethyl)-5-methyl-2,4-dioxo-1,2,3,4-tetrahydrothieno[2,3-d]pyrimidin-6-yl]methyl}imidazolidin-2-ylidene]carbamate] the figure was 3.1 nM.

Turning to `CCn1c(=O)c2c(C)c(CN3CCNC3=NC(=O)OC)sc2n(CCOC)c1=O` (single isomer, unassigned) [Example 119, Methyl [1-{[3-ethyl-1-(2-methoxyethyl)-5-methyl-2,4-dioxo-1,2,3,4-tetrahydrothieno[2,3-d]pyrimidin-6-yl]methyl}imidazolidin-2-ylidene]carbamate], the concentration for half-maximal inhibition (IC50) worked out at 2.7 nM. `CCn1c(=O)c2c(C)c(Cn3[nH]ccc3=O)sc2n(CC2CCCO2)c1=O` (single isomer, unassigned) [Example 130, 3-Ethyl-5-methyl-6-[(5-oxo-2,5-dihydro-1H-pyrazol-1-yl)methyl]-1-(tetrahydrofuran-2-ylmethyl)thieno[2,3-d]pyrimidine-2,4(1H,3H)-dione]: the IC50 came out at 30 nM. The result for `CCn1c(=O)c2c(C)c(Cn3[nH]ccc3=O)sc2n(CC2CCCO2)c1=O` (single isomer, unassigned) [Example 131, 3-Ethyl-5-methyl-6-[(5-oxo-2,5-dihydro-1H-pyrazol-1-yl)methyl]-1-(tetrahydrofuran-2-ylmethyl)thieno[2,3-d]pyrimidine-2,4(1H,3H)-dione] reads 180 nM; that for `Cc1c(Cn2[nH]ccc2=O)sc2c1c(=O)n(C(C)C)c(=O)n2CC1CCCO1` (single isomer, unassigned) [Example 135, 3-Isopropyl-5-methyl-6-[(5-oxo-2,5-dihydro-1H-pyrazol-1-yl)methyl]-1-(tetrahydrofuran-2-ylmethyl)thieno[2,3-d]pyrimidine-2,4(1H,3H)-dione], 46 nM; that for `Cc1c(Cn2[nH]ccc2=O)sc2c1c(=O)n(C(C)C)c(=O)n2CC1CCCO1` (single isomer, unassigned) [Example 136, 3-Isopropyl-5-methyl-6-[(5-oxo-2,5-dihydro-1H-pyrazol-1-yl)methyl]-1-(tetrahydrofuran-2-ylmethyl)thieno[2,3-d]pyrimidine-2,4(1H,3H)-dione], 360 nM. Take `CCn1c(=O)c2c(C)c(CN3CCNC3=S)sc2n(CC2CCCO2)c1=O` (single isomer, unassigned) [Example 139, 3-Ethyl-5-methyl-1-(tetrahydrofuran-2-ylmethyl)-6-[(2-thioxoimidazolidin-1-yl)methyl]thieno[2,3-d]pyrimidine-2,4(1H,3H)-dione]: the half-inhibitory concentration (IC50) was 2.8 nM.

As to `CCn1c(=O)c2c(C)c(CN3CCNC3=S)sc2n(CC2CCCO2)c1=O` (single isomer, unassigned) [Example 140, 3-Ethyl-5-methyl-1-(tetrahydrofuran-2-ylmethyl)-6-[(2-thioxoimidazolidin-1-yl)methyl]thieno[2,3-d]pyrimidine-2,4(1H,3H)-dione], the IC50 is 4.8 nM. `CCn1c(=O)c2c(C)c(CN3CCNC3=S)sc2n(CC2CCCCO2)c1=O` (single isomer, unassigned) [Example 141, 3-Ethyl-5-methyl-1-(tetrahydro-2H-pyran-2-ylmethyl)-6-[(2-thioxoimidazolidin-1-yl)methyl]thieno[2,3-d]pyrimidine-2,4(1H,3H)-dione]: the IC50 turned out to be 120 nM. Take `CCn1c(=O)c2c(C)c(CN3CCNC3=S)sc2n(CC2CCCCO2)c1=O` (single isomer, unassigned) [Example 142, 3-Ethyl-5-methyl-1-(tetrahydro-2H-pyran-2-ylmethyl)-6-[(2-thioxoimidazolidin-1-yl)methyl]thieno[2,3-d]pyrimidine-2,4(1H,3H)-dione]: the IC50 came out at 13 nM. Consider `Cc1c(CN2CCNC2=S)sc2c1c(=O)n(CC(C)C)c(=O)n2CC1CCO1` (single isomer, unassigned) [Example 147, 3-Isobutyl-5-methyl-1-(oxetan-2-ylmethyl)-6-[(2-thioxoimidazolidin-1-yl)methyl]thieno[2,3-d]pyrimidine-2,4(1H,3H)-dione], for which the IC50 is 22 nM. As to `Cc1c(CN2CCNC2=S)sc2c1c(=O)n(CC(C)C)c(=O)n2CC1CCO1` (single isomer, unassigned) [Example 148, 3-Isobutyl-5-methyl-1-(oxetan-2-ylmethyl)-6-[(2-thioxoimidazolidin-1-yl)methyl]thieno[2,3-d]pyrimidine-2,4(1H,3H)-dione], the IC50 worked out at 4.1 nM. Consider `Cc1c(CN2CCNC2=S)sc2c1c(=O)n(CC(F)(F)F)c(=O)n2CC1CCO1` (single isomer, unassigned) [Example 155, 5-Methyl-1-(oxetan-2-ylmethyl)-6-[(2-thioxoimidazolidin-1-yl)methyl]-3-(2,2,2-trifluoroethyl)thieno[2,3-d]pyrimidine-2,4(1H,3H)-dione], for which the IC50 was determined as 26 nM. Regarding `Cc1c(CN2CCNC2=S)sc2c1c(=O)n(CC(F)(F)F)c(=O)n2CC1CCO1` (single isomer, unassigned) [Example 156, 5-Methyl-1-(oxetan-2-ylmethyl)-6-[(2-thioxoimidazolidin-1-yl)methyl]-3-(2,2,2-trifluoroethyl)thieno[2,3-d]pyrimidine-2,4(1H,3H)-dione], the half-maximal inhibitory concentration (IC50) came out at 5.7 nM.

Take `Cc1c(CN2CCNC2=S)sc2c1c(=O)n(CC(F)F)c(=O)n2CC1CCCO1` (single isomer, unassigned) [Example 163, 3-(2,2-Difluoroethyl)-5-methyl-1-(tetrahydrofuran-2-ylmethyl)-6-[(2-thioxoimidazolidin-1-yl)methyl]thieno[2,3-d]pyrimidine-2,4(1H,3H)-dione]: the half-maximal inhibitory concentration (IC50) is 5.2 nM.

The values are drawn from patent publication US10428083B2, “Heterocyclylmethyl-thienouracile as antagonists of the adenosine-A2B-receptor” (BAYER PHARMA AKTIENGESELLSCHAFT, priority 2015, dated 2019).
